# Patent US11987807B2, “Isolated human lung progenitor cells and uses thereof” (THE GENERAL HOSPITAL CORPORATION, priority 2012, dated 2024)
# Tested on: human iPSC and ESC lines
# Test: Definitive endoderm generation from human iPSC/ESC (FOXA2/SOX17 co-staining)
# Assay type: cell-based
# Details: screen of multiple PI3K inhibitors (LY-294002, ZSTK474, Wortmannin, PI828, NVP-BKM120, PIK-75)
# Protocol: The endoderm is one of the three primary germ cell layers in the embryo. It forms the embryonic gut which in turn gives rise to the epithelia of the lungs and digestive organs. Therefore, the first essential step for directing human iPSC towards a lung lineage is to generate endoderm cells, preferably with high efficiency. […] For example, the current published protocol (Mou et al., 2012; RPMI+2% B27+100 ng/ml TGF-beta agonist Activin A+5 uM LY-294002 PI3K Inhibitor) is effective in several human iPSC and ESC lines with definitive endoderm efficiency higher than 90%. In some “difficult” or “resistant” cell lines, this same protocol generates definitive endoderm that varies between low efficiency (<30%) to medium efficiency (40-70%). […] Therefore, this protocol is much more cost-effective than prior protocols. […]
# This protocol permits a remarkable 90% or greater, including 91%, 92%, 93%, 94%, 95%, 96%, 97%, and even as high as 98% or more, of human iPSC/ESC cells to be converted into definitive endoderm cell as determined by nuclear staining for the transcription factors Foxa2 and Sox17. […] Furthermore, this protocol can be universally applied to multiple cell lines including several “difficult” cell lines that were determined to have low efficiency of definitive endoderm generation. […]
compound,measurement,value
FC(F)c1nc2ccccc2n1-c1nc(N2CCOCC2)nc(N2CCOCC2)n1 [ZSTK474],potency for definitive endoderm generation,most potent
